Results: paper PMC9737772, “Synthesis and Anti-Inflammatory Activity of 1-Methylhydantoin Cinnamoyl Imides” (Molecules, 2022)
“Also recorded” adds a separate entry of the source.

Tests used:
[1] = target: T1, ovine cyclooxygenase-2 (COX-2); assay: In vitro COX inhibition assay (enzyme immunoassay kit), COX-2; type: biochemical; conditions: ovine COX-2, enzyme immunoassay kit
T1 construct: purchased Cayman Chemical 560131
Description: The inhibition ability of 1-methylhydantoin cinnamic imides to ovine cyclooxygenase-1 (COX-1) and cyclooxygenase-2 (COX-2) was determined using an enzyme immunoassay kit. […] The Cell Counting Kit-8 (CCK-8) method was used to detect the cytotoxicity of the five target compounds (1–5) on lipopolysaccharide (LPS)-induced RAW264.7 cells. When the concentrations of compounds 1, 3 and 5 are lower than 20 μM, and when the concentrations of compounds 2 and 4 are lower than 80 μM, the survival rate of RAW264.7 cells is more than 95%, which has no obvious damage to cell survival and can be used for subsequent in vitro anti-inflammatory activity experiments to provide the basis.
The inhibition ability of ovine COX-1 and COX-2 was determined using an enzyme immunoassay kit (560131, Cayman Chemical, Ann Arbor, MI, USA) following the manufacturer’s instructions.

[2] = Cytotoxicity determination by CCK-8; type: cell-based; conditions: mouse, RAW264.7 macrophage cells, RAW264.7 cells
Description: (§1) RAW264.7 mouse macrophages were purchased from Zhongqiao Xinzhou and cultured in DMEM supplemented with 10% fetal bovine serum (FBS) and 1% penicillin/streptomycin in a 37 °C, 5% CO2 incubator. The cells were passaged every two days to maintain the monolayer cell state.
The CCK-8 kit was used to determine the cytotoxicity of the target compounds (1–5) to RAW264.7 cells. The well-growing cells were subcultured in a 96-well plate. After the cells adhered to the wall, the experimental group was added with a medium containing different concentrations of compounds to make the final concentration reach 5, 10, 20, 40, 80, 160 and 320 μmoL/L. The control group was added with a medium without compound, and a blank group without cells or compound was set at the same time. After culturing in a constant temperature incubator for a period, CCK-8 solution was added to produce yellow formazan product. The OD value was measured by the microplate reader at the detection wavelength of 450 nm, and the cell survival rate was calculated. The cell survival rate formula is as follows:(1) Cell Survival Rate %=ODe−ODb/ODc−ODb×100% where ODe was the OD value of the experimental group, ODb was the OD value of the blank group, and ODc was the OD value of the control group.

[3] = test system: TNF-α secretion in RAW264.7 cells induced by LPS; assay: TNF-α content in supernatant of LPS-induced RAW264.7 cells (ELISA); type: cell-based, mouse
Description: Tumor necrosis factor-α (TNF-α) is a pleiotropic proinflammatory cytokine, known for its proinflammatory activity. To explore the inhibitory effects of five compounds on TNF-α, ELISA was used to determine the content of inflammatory factor TNF-α in the supernatant of RAW264.7 cells stimulated by LPS. RAW264.7 cells secreted a large amount of inflammatory-factor TNF-α 24 h after LPS (1 ug/mL) induction.
as §1
(§2) The RAW264.7 cells in the logarithmic growth phase were seeded in a 24-well plate and placed in a 37 °C, 5% CO2 constant temperature incubator for culture. After 24 h, the culture medium was discarded. The blank group was added with 10% FBS DMEM 1 mL. The group was added with a medium containing 1 ug/mL LPS, and the experimental group was added with LPS and different concentrations of the target compound to make the final volume 1 mL. After 24 h of culture, the cell supernatant was taken and stored in a refrigerator at −20 °C for later use. The Griess kit was used to determine the concentration of NO in the supernatant, and a double antibody sandwich ELISA kit was used to detect TNF-α and IL-1β.

[4] = test system: IL-1β secretion in RAW264.7 cells induced by LPS; assay: IL-1β content in supernatant of LPS-induced RAW264.7 cells (ELISA); type: cell-based, mouse
Source text: Interleukin-1β (IL-1β) has strong proinflammatory activity and can induce the production of a variety of proinflammatory mediators, such as cytokines and chemokines. In this work, the ELISA method was used to determine the IL-1β content in the supernatant of RAW264.7 cells stimulated by LPS to evaluate the effects of five compounds on IL-1β secretion.
as §1, §2

[5] = 80 μM, LPS 1 ug/mL, 24 h, RAW264.7, vs model group
[6] = LPS-stimulated RAW264.7, concentration not stated
[7] = 80 μM, LPS, 24 h, RAW264.7, vs model group

T1 sequence (P35354 18-604): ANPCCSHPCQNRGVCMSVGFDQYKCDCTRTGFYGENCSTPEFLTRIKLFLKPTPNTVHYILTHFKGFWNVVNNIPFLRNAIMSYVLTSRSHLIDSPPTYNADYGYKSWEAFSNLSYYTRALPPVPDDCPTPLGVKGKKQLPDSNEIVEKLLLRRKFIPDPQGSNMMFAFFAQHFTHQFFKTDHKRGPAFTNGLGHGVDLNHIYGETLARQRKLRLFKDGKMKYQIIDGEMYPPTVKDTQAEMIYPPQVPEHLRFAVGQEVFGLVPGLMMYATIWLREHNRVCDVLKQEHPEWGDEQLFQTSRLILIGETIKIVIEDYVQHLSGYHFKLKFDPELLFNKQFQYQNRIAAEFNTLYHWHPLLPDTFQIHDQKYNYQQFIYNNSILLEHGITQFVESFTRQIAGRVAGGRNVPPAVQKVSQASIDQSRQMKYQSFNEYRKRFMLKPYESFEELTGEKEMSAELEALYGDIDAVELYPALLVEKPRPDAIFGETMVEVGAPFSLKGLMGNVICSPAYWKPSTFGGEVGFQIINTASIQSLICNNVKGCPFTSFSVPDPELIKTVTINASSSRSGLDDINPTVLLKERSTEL

CC(=O)Oc1ccc(/C=C/C(=O)N2C(=O)CN(C)C2=O)cc1 [Compound 4, (E)-4-(3-(3-methyl-2,5-dioxoimidazolidin-1-yl)-3-oxoprop-1-en-1-yl)phenyl acetate]
IC50 [1]: 126 ± 12 µM | CC50 [2]: 302 µM | inhibition of TNF-α secretion [3, 5]: significantly reduce the secretion of TNF-α; also recorded: most significant | inhibition of TNF-α secretion [3, 6]: reduce the secretion of TNF-α; also recorded: significantly inhibited the secretion of inflammatory factors TNF-α | inhibition of IL-1β secretion [4, 7]: significant inhibitory effect on the secretion of IL-1β | inhibition of IL-1β secretion [4, 6]: reduce the secretion of TNF-α and IL-1β; also recorded: significantly inhibited the secretion of inflammatory factors TNF-α and IL-1β | melting point: 148.9 to 149.6 °C

CN1CC(=O)N(C(=O)/C=C/c2ccco2)C1=O [Compound 2, (E)-3-(3-(furan-2-yl)acryloyl)-1-methylimidazolidine-2,4-dione]
IC50 [1]: 204 ± 10 µM | CC50 [2]: 329 µM | inhibition of TNF-α secretion ([3]; 20 μM, LPS 1 ug/mL, 24 h, RAW264.7, vs model group): no obvious inhibitory effect on TNF-α | inhibition of TNF-α secretion [3, 5]: significantly reduce the secretion of TNF-α | inhibition of TNF-α secretion [3, 6]: reduce the secretion of TNF-α | inhibition of IL-1β secretion ([4]; 20 μM, LPS, 24 h, RAW264.7, vs model group): no obvious inhibitory effect on IL-1β | inhibition of IL-1β secretion [4, 7]: significant inhibitory effect on the secretion of IL-1β | inhibition of IL-1β secretion [4, 6]: reduce the secretion of TNF-α and IL-1β | melting point: 128.9 to 129.8 °C
